Test results reported in publication PMC6433685, “Histone deacetylase inhibitor LMK235 attenuates vascular constriction and aortic remodelling in hypertension” (Journal of Cellular and Molecular Medicine, 2019).

Experiments:
[1] = molecular target: T1, HDAC8 (Homo sapiens, UniProt Q9BY41); assay: HDAC8 fluorogenic enzyme assay kit (BPS Bioscience), cell-free; type: biochemical; settings: 0.001-10 μmol/L inhibitor
T1 construct: purchased BPS Bioscience 50068

[2] = test system: AT1 and ACE1 mRNA; assay: AT1 and ACE1 mRNA (qRT-PCR) in aortas of angiotensin II-infusion mice; type: in vivo
Procedure: (§1) All animal procedures were approved by the Animal Experimental Committee of Chonnam National University Medical School (CNU IACUC‐H‐2014‐47) and carried out in accordance with the Guide for the Care and Use of Laboratory Animals (US National Institutes of Health Publications, 8th edition, 2011). CD‐1 mice (8 weeks old, 30‐35 g) were used in this study. Hypertension was induced by angiotensin II (Ang II, 1.3 mg/kg/day) infusion using 14‐day micro‐osmotic pumps (Alzet, model 1002; infusion rate of 0.25 μL/h) or saline alone. Ang II osmotic pumps were implanted subcutaneously after the injection of ketamine (120 mg/kg) and xylazine (6.2 mg/kg). One week after Ang II infusion, mice were administered LMK235 (1 or 3 mg/kg/day) or vehicle (dimethylsulphoxide [DMSO]) via intraperitoneal injection for 7 days. Mice were divided into three groups (n = 10‐12 per group): sham + vehicle, Ang II + vehicle, and Ang II + LMK235.
(§2) Total RNA from aortic tissue was isolated with TRIzol reagent (Invitrogen Life Technologies), and 1 μg of RNA was used for the reverse transcription reaction with TOPscript RT DryMIX (Enzynomics, South Korea). Quantification of mRNA levels was performed with the SYBR Green PCR kit (Enzynomics, South Korea).

[3] = molecular target: T2, HDAC5 (Homo sapiens, UniProt Q9UQL6); assay: HDAC5 fluorogenic enzyme assay kit (BPS Bioscience), cell-free; type: biochemical; settings: 0.001-10 μmol/L inhibitor
T2 construct: purchased BPS Bioscience 50065
T2 sequence (Q9UQL6 whole entry): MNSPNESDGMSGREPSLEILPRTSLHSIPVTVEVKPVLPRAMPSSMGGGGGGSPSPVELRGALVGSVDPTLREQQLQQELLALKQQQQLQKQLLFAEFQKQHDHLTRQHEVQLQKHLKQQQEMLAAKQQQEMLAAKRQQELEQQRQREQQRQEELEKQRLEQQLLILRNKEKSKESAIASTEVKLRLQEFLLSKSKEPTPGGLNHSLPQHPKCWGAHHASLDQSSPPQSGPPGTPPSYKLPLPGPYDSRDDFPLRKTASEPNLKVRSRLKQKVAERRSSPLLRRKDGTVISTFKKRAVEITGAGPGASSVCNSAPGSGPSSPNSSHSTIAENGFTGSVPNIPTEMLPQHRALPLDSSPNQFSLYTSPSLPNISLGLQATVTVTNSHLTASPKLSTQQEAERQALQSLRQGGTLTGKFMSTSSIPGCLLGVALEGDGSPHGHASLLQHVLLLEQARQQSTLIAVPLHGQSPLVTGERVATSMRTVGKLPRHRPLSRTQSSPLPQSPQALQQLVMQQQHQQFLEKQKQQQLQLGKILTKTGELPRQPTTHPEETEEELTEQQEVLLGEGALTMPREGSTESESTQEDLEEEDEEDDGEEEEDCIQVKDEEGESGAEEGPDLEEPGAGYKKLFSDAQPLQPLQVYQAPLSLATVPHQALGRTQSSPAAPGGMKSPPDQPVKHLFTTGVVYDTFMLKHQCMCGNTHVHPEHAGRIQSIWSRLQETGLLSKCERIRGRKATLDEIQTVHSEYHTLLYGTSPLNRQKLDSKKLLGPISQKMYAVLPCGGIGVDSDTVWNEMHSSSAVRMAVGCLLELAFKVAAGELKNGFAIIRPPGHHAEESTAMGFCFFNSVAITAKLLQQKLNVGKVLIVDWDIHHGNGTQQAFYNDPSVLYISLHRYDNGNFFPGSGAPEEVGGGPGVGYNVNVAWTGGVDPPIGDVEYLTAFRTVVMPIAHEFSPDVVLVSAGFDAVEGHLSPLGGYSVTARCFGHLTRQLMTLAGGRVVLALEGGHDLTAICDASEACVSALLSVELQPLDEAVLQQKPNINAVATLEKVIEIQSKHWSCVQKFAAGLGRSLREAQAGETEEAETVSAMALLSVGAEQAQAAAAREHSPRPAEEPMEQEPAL
Procedure: Enzyme activity measurements of class I and IIa HDACs were performed using a cell‐free system and according to a method previously described.16 We used fluorogenic HDAC1 (#50061), HDAC2 (#50062), HDAC3 (#50063), HDAC4 (#50064), HDAC5 (#50065), HDAC6 (#50076), HDAC7 (#50067), HDAC8 (#50068) and HDAC9 (#50069) enzyme assay kits from BPS Bioscience (San Diego, CA, USA). To test the enzyme activity of LMK235, 0.001, 0.003, 0.01, 0.03, 0.1, 0.3, 1, 3 and 10 μmol/L concentrations were used. For the IC50 calculations, every data point was normalized to the vehicle (100% activity). The normalized data were fitted with a Hill non‐linear curve fit (OrigionPro 9.0).

[4] = test system: angiotensin II‐infusion mice; assay: Aortic wall thickness (H&E) in angiotensin II-infusion mice; type: in vivo; settings: Ang II-infusion mice; 3 mg/kg/day for 1 week
Procedure: as §1
The paraffin‐embedded tissues were cut into 3‐μm‐thick sections, deparaffinized with xylene and then rehydrated with graded alcohol. Haematoxylin and eosin (H&E) staining was performed as described, with slight modifications.15 The arterial wall thickness was measured using NIS Elements Software (Nikon, Japan).

[5] = test system: HUVECs; assay: Nitric oxide production in HUVECs (DAF-FM DA fluorescence); type: cell-based, Human; settings: 1 μmol/L, 24 h
Procedure: (§3) A10 vascular smooth muscle cells (VSMCs) were incubated with Dulbecco's modified Eagle medium (DMEM) with 4500 mg/L glucose containing 10% foetal bovine serum (FBS). Passages were carried out every 2 or 3 days. VSMCs were maintained in DMEM in the presence of 10% FBS with low glucose (1000 mg/L). Human umbilical vein endothelial cells (HUVECs) were obtained from Gibco (Waltham, MA, USA). HUVECs were grown in an endothelial cell basal medium (EBM) with EGM‐2 bullet kit (Lonza, Walkersville, MD) and maintained at 37°C under 5% CO2. Cells were cultured for 5‐7 passages.
We used a nitric oxide‐sensitive fluorescence probe, 4‐amino‐5‐methylamino‐2′,7′‐difluorescein diacetate (DAF‐FM DA, Cayman), for nitric oxide detection. HUVECs were seeded on coverslips in 12‐well plates (1.5 × 10^5/mL). Cells, serum‐starved with EBM for 16 hour, were treated with LMK235 (1 μmol/L) or L‐NAME (250 μmol/L) for 24 hour and incubated with DAF‐FM DA (2.5 μmol/L) for 45 minutes. Next, the cells were fixed with 70% ethanol for 45 minutes and mounted using Prolog Gold antifade reagent and DAPI (Invitrogen, USA).

[6] = molecular target: T3, HDAC9 (Homo sapiens, UniProt Q9UKV0); assay: HDAC9 fluorogenic enzyme assay kit (BPS Bioscience), cell-free; type: biochemical; settings: 0.001-10 μmol/L inhibitor
T3 construct: purchased BPS Bioscience 50069
T3 sequence (Q9UKV0 whole entry): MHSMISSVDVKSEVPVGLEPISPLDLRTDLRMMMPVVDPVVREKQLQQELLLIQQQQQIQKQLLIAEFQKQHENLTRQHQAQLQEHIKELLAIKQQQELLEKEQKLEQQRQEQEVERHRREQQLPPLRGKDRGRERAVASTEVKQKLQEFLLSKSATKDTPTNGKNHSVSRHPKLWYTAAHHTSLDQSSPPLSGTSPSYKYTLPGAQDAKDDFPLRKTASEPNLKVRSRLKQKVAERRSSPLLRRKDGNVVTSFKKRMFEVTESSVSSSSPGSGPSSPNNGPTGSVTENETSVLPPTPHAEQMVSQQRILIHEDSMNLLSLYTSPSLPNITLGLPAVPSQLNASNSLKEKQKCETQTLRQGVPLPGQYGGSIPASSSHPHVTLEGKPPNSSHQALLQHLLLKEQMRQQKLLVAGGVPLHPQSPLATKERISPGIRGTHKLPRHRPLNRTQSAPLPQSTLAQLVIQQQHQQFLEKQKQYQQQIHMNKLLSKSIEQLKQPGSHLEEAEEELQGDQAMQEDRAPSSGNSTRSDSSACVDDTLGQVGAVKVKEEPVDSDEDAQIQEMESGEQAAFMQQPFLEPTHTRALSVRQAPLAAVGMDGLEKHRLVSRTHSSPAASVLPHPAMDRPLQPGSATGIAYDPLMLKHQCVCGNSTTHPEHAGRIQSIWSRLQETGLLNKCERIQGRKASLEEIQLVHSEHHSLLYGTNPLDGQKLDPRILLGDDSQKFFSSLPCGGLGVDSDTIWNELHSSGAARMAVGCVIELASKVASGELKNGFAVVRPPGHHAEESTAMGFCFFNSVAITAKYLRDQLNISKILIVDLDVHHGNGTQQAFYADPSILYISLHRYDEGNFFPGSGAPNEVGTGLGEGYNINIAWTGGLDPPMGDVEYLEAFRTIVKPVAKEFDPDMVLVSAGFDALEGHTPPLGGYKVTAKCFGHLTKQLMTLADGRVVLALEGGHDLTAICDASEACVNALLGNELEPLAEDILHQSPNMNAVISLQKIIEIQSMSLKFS

[7] = test system: A10 cells; assay: Western blot in A10 cells; type: cell-based, rat
Procedure: Cells were lysed in RIPA lysis buffer [150 mmol/L NaCl, 1% Triton X‐100, 1% sodium deoxycholate, 50 mmol/L Tris‐HCl pH 7.5, 2 mmol/L EDTA, 1 mmol/L PMSF, 1 mmol/L DTT, 1 mmol/L Na3VO4, and 5 mmol/L NaF] with protease inhibitor cocktail and sonicated. Approximately 30 μg of protein was separated by 10% sodium dodecyl sulphate‐polyacrylamide gel electrophoresis (SDS‐PAGE) and transferred to polyvinylidene difluoride (PVDF) membranes. After blocking with 5% skim milk for 1 hour, proteins were incubated with the primary antibodies overnight: anti‐cyclin D1 (1:1000), anti‐HDAC1 (1:1000), anti‐HDAC2 (1:1000), anti‐HDAC4 (1:1000) and anti‐HDAC5 (1:1000). As secondary antibodies, horse radish peroxidase‐linked antimouse or anti‐rabbit antibodies were used. Protein bands were visualized using Immobilon Western Detection Reagents (Millipore, Billerica, MA, USA). The Bio‐ID software was used to quantify protein expression (Vilber Lourmat, Eberhardzell, Germany).

[8] = test system: A10 cells; assay: MTT cell viability assay in A10 cells; type: cell-based, rat; settings: up to 1000 nmol/L, 24 hours
Procedure: as §3
Cell viability was tested by the MTT [3‐(4,5‐dimethylthiazol‐2‐yl)‐2,5‐diphenyl tetrazolium bromide] assay. A10 cells were seed into 24‐well culture dishes and serum‐starved overnight. Cells were treated with LMK235 or vehicle for 24 hours at the indicated concentrations. MTT reagent was added to the medium for 2 hours and then dissolved in DMSO, and the absorbance was measured at 570 nm. For assessing cell proliferation, A10 cells were transfected with pCMV‐SPORT6‐CaMKIIα in a dose‐dependent manner. The MTT assay was performed as described above.

[9] = test system: AT1 and ACE1 mRNA; assay: AT1 and ACE1 mRNA (qRT-PCR) in aortas of SHRs; type: in vivo, rats
Procedure: For the essential hypertension animal experiment, SHRs were used. The SHR is the most used model animal model for hypertension and is generally regarded as an essential hypertension model.13 SHRs (6 weeks old, approximately 170 g) were purchased from Charles River (Yokohama, Japan). Rats were intraperitoneally administered LMK235 or vehicle every 3 days for 2 weeks (n = 4 per group).
as §2

T1 sequence (Q9BY41 whole entry): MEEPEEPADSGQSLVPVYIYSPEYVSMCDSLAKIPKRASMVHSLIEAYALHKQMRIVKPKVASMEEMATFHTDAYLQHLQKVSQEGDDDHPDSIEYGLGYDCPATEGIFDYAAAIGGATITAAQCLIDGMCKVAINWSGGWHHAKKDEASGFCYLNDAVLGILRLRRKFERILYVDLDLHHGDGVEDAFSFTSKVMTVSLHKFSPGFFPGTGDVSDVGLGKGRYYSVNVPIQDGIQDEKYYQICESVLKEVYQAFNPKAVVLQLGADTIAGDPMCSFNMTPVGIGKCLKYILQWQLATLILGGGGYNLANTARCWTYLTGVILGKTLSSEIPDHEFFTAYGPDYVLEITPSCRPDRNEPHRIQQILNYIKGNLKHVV

Cc1cc(C)cc(C(=O)NOCCCCCC(=O)NO)c1 [LMK235]
IC50 [1]: 1.12 µM | AT1 transcript levels in aorta ([2]; Ang II-infusion mice): not reduced | aortic ACE1 or AT1 expression ([2]; either hypertension model (Ang II mice and SHRs)): did not affect | IC50 [3]: > 20 µM | aortic wall thickness [4]: completely inhibited the increased aortic wall thickness | nitric oxide production [5]: increased nitric oxide production | IC50 [6]: > 20 µM | protein expression of class I and IIa/b HDAC ([7]; A10 cells without CaMKIIα transfection, 18 h): reduced protein expression | CaMKIIα-induced cyclin D1 protein ([7]; CaMKIIα-transfected A10 cells): reduced | HDAC4 and HDAC5 proteins ([7]; CaMKIIα-transfected A10 cells): significantly reduced | protein expression of HDAC1 and HDAC2 ([7]; CaMKIIα-transfected A10 cells, 18 h): significantly reduced | cell viability (MTT) [8]: not affected | AT1 mRNA levels in aorta [9]: not affected
